# Like-named read-outs stand apart in the source and are kept apart here.
# Columns and labels:
# human DGKα = human DGKα (Homo sapiens, UniProt P23743); assay: DGKα Biochemical Activity Assay (ADP-Glo); conditions: recombinant DGKα 1 nM, 100 μM ATP, 18:1 DAG/POPS/octylglucoside micelles, 1 hour at 25° C.; geometric mean; read-out: HTBS DGKa 1X ATP KM IC50;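 note: luminescent detection of ADP produced as DGKα phosphorylates DAG to phosphatidic acid, IC50 from four-parameter nonlinear curve fit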
# Excerpt: Alternatively, the enzymatic activity of human DGKα was monitored in a biochemical assay in the presence or absence of compounds and using micelles containing 18:1 Diacylglycerol (DAG), 16:0-18:1 PS (POPS) and Octylglucoside as substrate. DGKα activity led to conversion of DAG and ATP to Phosphatidic Acid (PA) and ADP. Levels of ADP were monitored by bioluminescence using the ADP-Glo Kinase Assay (Promega) and were indicative of DGKα activity.
# Recombinant DGKα (Carna Biosciences) in assay buffer (5 μL in 50 mM MOPS [3-(N-morpholino) propanesulfonic acid], pH 7.2; 0.0025% Triton X-100; 1 mM dithiothreitol; 5 mM MgCl2, 200 μM ATP) was added to the compound-containing plate and was incubated for 15 minutes at 25° C. […] The reaction mixture was incubated at 25° C. for 1 hour. ADP-Glo Reagent (10 μL, 10 mM Mg added) provided by the kit was added to each well and incubated at 25° C. for 40 minutes. Then, 20 μL of Kinase Detection Reagent was added and incubated at 25° C. for 40 minutes. Luciferase activity of each well was measured via luminescence on an Envision plate reader (PerkinElmer).
# Least squares curve fittings were performed using a four-parameter variable slope nonlinear regression model. […] IC50 values from multiple experiments were averaged by geometric mean and the standard deviation was calculated.
# [1] = system: Jurkat NFκB-luciferase cells; assay: Jurkat NFκB-Luciferase Assay; assay type: cell-based; conditions: Homo sapiens
# Procedure, shortened: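 Luminescence from One-Glo Ex, read 7 min post-addition, reports NFκB activation in Jurkat luciferase reporter cells. Cells, diluted to 1 million cells/ml in 10% FBS RPMI, were dispensed onto plates holding compound and washed, pre-bound antibody.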
# [2] = Jurkat NFκB-luciferase cells activated with anti-CD3 antibody (OKT3), 2.5 hrs at 37° C., geometric mean, read-out: DGK NFKb Luciferase EC50
# [3] = Jurkat, […], read-out: DGK NFKb Luciferase EC50 (nM)
# Chain of human DGKα (P23743 whole entry): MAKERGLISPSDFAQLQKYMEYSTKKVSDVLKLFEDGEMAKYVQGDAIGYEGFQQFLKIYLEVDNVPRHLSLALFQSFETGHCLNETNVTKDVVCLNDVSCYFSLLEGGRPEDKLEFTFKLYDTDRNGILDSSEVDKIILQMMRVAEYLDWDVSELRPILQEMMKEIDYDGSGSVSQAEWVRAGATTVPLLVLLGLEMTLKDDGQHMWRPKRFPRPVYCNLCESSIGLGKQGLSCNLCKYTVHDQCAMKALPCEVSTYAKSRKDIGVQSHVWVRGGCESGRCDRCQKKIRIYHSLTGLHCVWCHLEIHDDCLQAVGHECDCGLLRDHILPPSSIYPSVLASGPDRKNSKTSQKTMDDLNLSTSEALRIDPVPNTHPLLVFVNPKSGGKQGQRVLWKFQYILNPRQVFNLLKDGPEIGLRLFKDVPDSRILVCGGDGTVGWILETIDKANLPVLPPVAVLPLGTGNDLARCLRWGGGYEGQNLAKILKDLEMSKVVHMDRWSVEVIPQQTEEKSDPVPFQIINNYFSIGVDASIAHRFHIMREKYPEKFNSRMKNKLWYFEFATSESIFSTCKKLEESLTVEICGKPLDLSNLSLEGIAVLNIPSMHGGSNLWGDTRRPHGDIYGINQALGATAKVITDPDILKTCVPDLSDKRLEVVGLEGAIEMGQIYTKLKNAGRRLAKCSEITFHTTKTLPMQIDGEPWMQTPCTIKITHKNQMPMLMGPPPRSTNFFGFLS
SMILES,IC50 (human DGKα),"EC50 [1, 2]","EC50 [1, 3]"
"Cc1nnc2nc(N3CCOCc4c3ccnc4C#CC(C)(C)NC(=O)C3(C(F)(F)F)CC3)c3c(F)cccc3n12 [Example 137, N-(4-(1-(6-fluoro-1-methyl-[1,2,4]triazolo[4,3-a]quinazolin-5-yl)-1,2,3,5-tetrahydropyrido[4,3-e][1,4]oxazepin-6-yl)-2-methylbut-3-yn-2-yl)-1-(trifluoromethyl)cyclopropane-1-carboxamide]",17.7 nM,106 nM,
"Cc1nnc2nc(N(CC(F)F)c3ccnc(C#CC(C)(C)C(F)(F)F)c3)c3c(F)c(F)ccc3n12 [Example 84, N-(2,2-difluoroethyl)-6,7-difluoro-1-methyl-N-(2-(4,4,4-trifluoro-3,3-dimethylbut-1-yn-1-yl)pyridin-4-yl)-[1,2,4]triazolo[4,3-a]quinazolin-5-amine]",5.06 nM,2.44 nM,
"Cc1nnc2nc(N3CCCc4c(C#CC5CCCCO5)cccc43)c3c(F)cccc3n12 (centres unmarked) [Example 129, 6-fluoro-1-methyl-5-(5-((tetrahydro-2H-pyran-2-yl)ethynyl)-3,4-dihydroquinolin-1(2H)-yl)-[1,2,4]triazolo[4,3-a]quinazoline]",7.55 nM,1.22 nM,
"Cc1nnc2nc(N3CCOCc4c3ccnc4C#CC(C)(C)C(F)(F)F)c3c(F)cccc3n12 [Example 140, 1-(6-fluoro-1-methyl-[1,2,4]triazolo[4,3-a]quinazolin-5-yl)-6-(4,4,4-trifluoro-3,3-dimethylbut-1-yn-1-yl)-1,2,3,5-tetrahydropyrido[4,3-e][1,4]oxazepine]",4.52 nM,4.36 nM,
"Cc1nnc2nc(N(CC(F)F)c3cc(F)cc(C#CC(C)(C)c4ccccn4)c3)c3c(F)c(F)ccc3n12 [Example 68, N-(2,2-difluoroethyl)-6,7-difluoro-N-(3-fluoro-5-(3-methyl-3-(pyridin-2-yl)but-1-yn-1-yl)phenyl)-1-methyl-[1,2,4]triazolo[4,3-a]quinazolin-5-amine]",191 nM,9.68 nM,
"Cc1nnc2nc(N3CCCc4c(C#CC(C)(C)O)cc(F)cc43)c3c(F)cccc3n12 [Example 152, 4-(7-fluoro-1-(6-fluoro-1-methyl-[1,2,4]triazolo[4,3-a]quinazolin-5-yl)-1,2,3,4-tetrahydroquinolin-5-yl)-2-methylbut-3-yn-2-ol]",34.6 nM,53.9 nM,
"COc1ccc(C#Cc2nccc3c2CCCN3c2nc3nnc(C)n3c3cccc(F)c23)cn1 [Example 75, 6-fluoro-5-(5-((6-methoxypyridin-3-yl)ethynyl)-3,4-dihydro-1,6-naphthyridin-1(2H)-yl)-1-methyl-[1,2,4]triazolo[4,3-a]quinazoline]",28.9 nM,3.41 nM,
"Cc1nnc2nc(N3CCCCc4c(C#CC(C)(C)C#N)cccc43)c3c(F)cccc3n12 [Example 188, 4-[1-(6-Fluoro-1-methyl-[1,2,4]triazolo[4,3-a]quinazolin-5-yl)-2,3,4,5-tetrahydro-1-benzazepin-6-yl]-2,2-dimethyl-but-3-ynenitrile]",9.86 nM,2.12 nM,
"Cc1nnc2nc(N3CCCc4c(C#CC5CCCCO5)cccc43)c3cc(F)ccc3n12 (centres unmarked) [Example 130, 7-fluoro-1-methyl-5-(5-((tetrahydro-2H-pyran-2-yl)ethynyl)-3,4-dihydroquinolin-1(2H)-yl)-[1,2,4]triazolo[4,3-a]quinazoline]",4.19 nM,1.98 nM,
"Cc1nnc2nc(N(CC(F)F)c3ccnc(C#CC(C)(C)O)c3F)c3c(F)cccc3n12 [Example 45, 4-[4-[2,2-difluoroethyl-(6-fluoro-1-methyl-[1,2,4]triazolo[4,3-a]quinazolin-5-yl)amino]-3-fluoro-2-pyridyl]-2-methyl-but-3-yn-2-ol]",8.25 nM,,329 nM
"Cc1nnc2nc(N3CCCc4c(C#CC(C)(C)CO)cccc43)c3cc(F)ccc3n12 [Example 235, 4-[1-(7-fluoro-1-methyl-[1,2,4]triazolo[4,3-a]quinazolin-5-yl)-3,4-dihydro-2H-quinolin-5-yl]-2,2-dimethyl-but-3-yn-1-ol]",6.85 nM,8.26 nM,
"CC(C)(C)C#Cc1cc(N(CC(F)F)c2nc3nncn3c3ccc(F)cc23)ccn1 [Example 101, N-(2,2-difluoroethyl)-N-(2-(3,3-dimethylbut-1-yn-1-yl)pyridin-4-yl)-7-fluoro-[1,2,4]triazolo[4,3-a]quinazolin-5-amine]",5.56 nM,4.69 nM,
"Cc1nnc2nc(N3CCCc4c(C#CC5(C(F)F)CC5)cccc43)c3c(Cl)c(F)ccc3n12 [Example 35, 6-chloro-5-[5-[2-[1-(difluoromethyl)cyclopropyl]ethynyl]-3,4-dihydro-2H-quinolin-1-yl]-7-fluoro-1-methyl-[1,2,4]triazolo[4,3-a]quinazoline]",5.44 nM,1.14 nM,
"Cc1nnc2nc(N3CCCc4c(C#Cc5ccn[nH]5)cccc43)c3c(F)cccc3n12 [Example 215, 5-(5-((1H-pyrazol-5-yl)ethynyl)-3,4-dihydroquinolin-1(2H)-yl)-6-fluoro-1-methyl-[1,2,4]triazolo[4,3-a]quinazoline]",25.2 nM,9.95 nM,
"Cc1nnc2nc(N3CCOCc4c3ccnc4C#CC3(C(C)(F)F)CC3)c3c(F)cccc3n12 [Example 142, 6-((1-(1,1-difluoroethyl)cyclopropyl)ethynyl)-1-(6-fluoro-1-methyl-[1,2,4]triazolo[4,3-a]quinazolin-5-yl)-1,2,3,5-tetrahydropyrido[4,3-e][1,4]oxazepine]",16.4 nM,5.03 nM,
Cc1cccc2c(N3CCOCc4c(C#CC5(C(C)(F)F)CC5)cccc43)nc3nncn3c12 [Example 107],39.9 nM,3.21 nM,
"CC(C)(O)C#Cc1cc(F)cc(N(CC(F)F)c2nc3nncn3c3c(Cl)cc(F)cc23)c1 [Example 50, 4-[3-[(9-chloro-7-fluoro-[1,2,4]triazolo[4,3-a]quinazolin-5-yl)-(2,2-difluoroethyl)amino]-5-fluoro-phenyl]-2-methyl-but-3-yn-2-ol]",11.9 nM,,16.8 nM
"Cc1nnc2nc(N3CCOCc4c(C#CC5(C(C)(F)F)CC5)cccc43)c3c(F)c(F)ccc3n12 [Example 200, 6-[2-[1-(1,1-Difluoroethyl)cyclopropyl]ethynyl]-1-(6,7-difluoro-1-methyl-[1,2,4]triazolo[4,3-a]quinazolin-5-yl)-3,5-dihydro-2H-4,1-benzoxazepine]",5.18 nM,0.858 nM,
"Cc1cccc2c1c(N1CCOCc3c(C#CC4(C)CC4)cccc31)nc1nnc(C)n12 [Example 216, 1-(1,6-dimethyl-[1,2,4]triazolo[4,3-a]quinazolin-5-yl)-6-((1-methylcyclopropyl)ethynyl)-1,2,3,5-tetrahydrobenzo[e][1,4]oxazepine]",24.3 nM,5.42 nM,
"Cc1nnc2nc(N3CCOCc4c3ccnc4C#CC3(C(F)(F)F)CC3)c3c(F)cccc3n12 [Example 143, 1-(6-fluoro-1-methyl-[1,2,4]triazolo[4,3-a]quinazolin-5-yl)-6-((1-(trifluoromethyl)cyclopropyl)ethynyl)-1,2,3,5-tetrahydropyrido[4,3-e][1,4]oxazepine]",3.85 nM,3.61 nM,
Fc1cccc2c1c(N1CCCOc3c(C#CC4(C(F)(F)F)CC4)cccc31)nc1nncn12 [Example 121],22.8 nM,4.95 nM,
"Cc1nnc2nc(N3CCOCc4c(C#Cc5cn[nH]c5)cccc43)c3c(F)cccc3n12 [Example 211, 6-((1H-pyrazol-4-yl)ethynyl)-1-(6-fluoro-1-methyl-[1,2,4]triazolo[4,3-a]quinazolin-5-yl)-1,2,3,5-tetrahydrobenzo[e][1,4]oxazepine]",6.35 nM,56.1 nM,
"Cc1nnc2nc(N3CCCc4c(C#Cc5cn[nH]c5)cccc43)c3c(F)cccc3n12 [Example 212, 5-(5-((1H-pyrazol-4-yl)ethynyl)-3,4-dihydroquinolin-1(2H)-yl)-6-fluoro-1-methyl-[1,2,4]triazolo[4,3-a]quinazoline]",18.6 nM,9.7 nM,
"Cc1nnc2nc(N3CCCc4c(C#CC(C)(C)C#N)cncc43)c3c(F)c(F)ccc3n12 [Example 10, 4-(1-(6,7-difluoro-1-methyl-[1,2,4]triazolo[4,3-a]quinazolin-5-yl)-1,2,3,4-tetrahydro-1,7-naphthyridin-5-yl)-2,2-dimethylbut-3-ynenitrile]",17.2 nM,5.87 nM,
"Fc1ccc2c(c(N3CCCc4c(C#CC5CCC5)cncc43)nc3nncn32)c1F [Example 13, 5-(5-(cyclobutylethynyl)-3,4-dihydro-1,7-naphthyridin-1(2H)-yl)-6,7-difluoro-[1,2,4]triazolo[4,3-a]quinazoline]",7.93 nM,1.01 nM,
"Cc1cccc2c1c(N1CCOCc3c(C#CC(C)(C)C#N)cccc31)nc1nnc(C)n12 [Example 217, 4-(1-(1,6-dimethyl-[1,2,4]triazolo[4,3-a]quinazolin-5-yl)-1,2,3,5-tetrahydrobenzo[e][1,4]oxazepin-6-yl)-2,2-dimethylbut-3-ynenitrile]",31.7 nM,16 nM,
"Cc1nnc2nc(N(CC(F)F)c3cc(F)cc(C#CC(C)(C)c4ccncc4)c3)c3c(F)c(F)ccc3n12 [Example 62, N-(2,2-difluoroethyl)-6,7-difluoro-N-(3-fluoro-5-(3-methyl-3-(pyridin-4-yl)but-1-yn-1-yl)phenyl)-1-methyl-[1,2,4]triazolo[4,3-a]quinazolin-5-amine]",80.1 nM,3.24 nM,
"Cc1nnc2nc(N3CCCc4c(C#CC5CCOCC5)cccc43)c3c(F)cccc3n12 [Example 26, 6-fluoro-1-methyl-5-(5-((tetrahydro-2H-pyran-4-yl)ethynyl)-3,4-dihydroquinolin-1(2H)-yl)-[1,2,4]triazolo[4,3-a]quinazoline]",22.5 nM,2.46 nM,
